Experimental data published in patent US12496350B2 (Ohio State Innovation Foundation, priority 2018, dated 2025).
Where a SMILES comes first, the peptide text is derived from it. Bridges are numbered along the chain shown (N, C = ends). [ ]: non-standard residue; d: D form. 2Nal = N[C@@H](Cc1ccc2ccccc2c1)C(=O)O; Bta = N[C@@H](Cc1csc2ccccc12)C(=O)O; Pen = CC(C)(S)[C@H](N)C(=O)O; Tle = CC(C)(C)[C@H](N)C(=O)O; Pip = O=C(O)[C@@H]1CCCCN1

Legend:
[1] = system: HeLa cells; assay: Cellular uptake efficiency by flow cytometry; format: cell-based; conditions: HeLa cells
Experimental: (§1) Cellular Uptake Efficiency: HeLa cells were seeded into 12-well cell-culture treated plates at a final density of 15×10^4 cells/well in DMEM supplemented with 10% FBS and 1% penicillin/streptomycin and incubated overnight at 37° ° C. and 5% CO2. After 24 h, the media was aspirated followed by washing the cells three times with warm DPBS. Peptides were diluted to a final concentration of 5 μM in DMEM containing 10% FBS with 1% penicillin/streptomycin, added to each well and then incubated for 2 h at 37° C. and 5% CO2. After 2 h, treatment media was aspirated and the cells were washed three times with ice-cold DPBS. Cells were removed from the plate via treatment with trypsin/EDTA and then harvested in ice-cold DPBS followed by centrifugation at ×300 RCF, 4° C. for 5 min. Cells were resuspended in DPBS and quantified using a BD Biosciences LSR II flow cytometer and gated using FlowJo. Values for uptake are provided as a percentage relative to positive control, CPP9 ([cyclo-fΦRrRrQ]-miniPEG-K[NF]).
as §1, with “Cellular Uptake. HeLa cells” for “Cellular Uptake Efficiency: HeLa cells”, “at 37° C. and” for “at 37° ° C. and”, “37° C. with 5% CO2.” for “37° C. and 5% CO2.”, “centrifugation at 300 g, 4° C.” for “centrifugation at ×300 RCF, 4° C.”, “control, CPP9 ([cyclo-fΦRrRrQ]-miniPEG-K[NF]), which has a 62% cytosolic entry efficiency. PGD97 entered HeLa cells at 60% efficiency relative to CPP9, corresponding to an absolute cytosolic entry efficiency of ˜36% (FIG. 9).” for “control, CPP9 ([cyclo-fΦRrRrQ]-miniPEG-K[NF]).”

[2] = biological target: T1, CAL PDZ domain (CALP5-His) (Homo sapiens, UniProt Q9HD26); assay: FP/FA-based competition assay, Condition A (probe peptide 26); format: binding; conditions: Condition A (superscript a): 50 nM probe peptide 26, 100 nM CALP5-His, 2 mM TCEP
T1 construct: His
Source text: First, the C-terminal valine (position 0) was replaced with a variety of residues and evaluated for binding to CAL PDZ domain in silico.

[3] = system: LC3-II; assay: Autophagy in macrophages, western blotting for LC3-II; format: cell-based, human; conditions: 100 nM, 48 h, ΔF508 CFTR macrophages
Experimental: Effect on Autophagy in Macrophage. Human primary ΔF508 CFTR macrophages were incubated with 10 μM VX809 (n=1) or 100 nM PGD97 (n=2) for 48 h in complete growth medium supplemented with 10% FBS and 1% penicillin/streptomycin at 37° C. Induction of autophagy was determined via western blotting for autophagy-associated protein LC3-II.

[4] = system: patient-derived primary cells; assay: Short-circuit current, Ussing chamber; format: cell-based, human; conditions: 100 nM with 10 μM VX661, 24 h
Experimental: (§2) Effect on Ion Channel Activity. CFBE or patient-derived primary cells were seeded onto filter inserts and grown to confluence at 37° C. in complete growth medium containing 10% FBS and 1% penicillin/streptomycin. Once confluent, cells were gently washed with DPBS and 10 µM VX661 and/or 100 nM PGD97 were added in complete growth medium supplemented with 10% FBS and 1% penicillin/streptomycin for 4 h or 24 h at 37° ° C. before measuring short circuit current using an Ussing chamber. PGD97 improved the ion channel activity by 33% and 37% relative to VX661 only controls after 4 and 24 h, respectively (FIGS. 12A and 12B).

[5] = system: HCT116 (colorectal cancer) cells; assay: Cytotoxicity, MTT assay; format: cell-based; conditions: 72 h, up to 50 μM
Experimental: (§3) Cytotoxicity. CFBE, HCT116 (colorectal cancer), or H358 (lung cancer) cells were seeded into a 96-well microplate (5000 cells per well) in full growth media and incubated at 37° C. overnight. A serial dilution of PGD97 was prepared in DPBS and then added to each well. The treated cells were incubated at 37° C. with 5% CO2 for 72 h. Following compound treatment, 10 μL of MTT stock solution was added to each well. After an additional 4 h at 37° C., 100 μL of SDS-HCl solubilizing solution was added to each well and the plate was returned to the incubator overnight at 37° C. A Tecan Infinite M1000 Pro microplate reader was used the following morning to measure the absorbance of the formazan product at 565 nm.

[6] = system: H358 (lung cancer) cells; assay: Cytotoxicity, MTT assay; format: cell-based; conditions: 72 h, up to 50 μM
Experimental: as §3

[7] = system: CFBE cells; assay: Cytotoxicity, MTT assay; format: cell-based; conditions: 72 h, up to 50 μM
Experimental: as §3

[8] = system: ΔF508CFTR-FAP; assay: ΔF508 CFTR membrane expression, FAP assay in HEK-293T cells; format: cell-based
Experimental: Effect on ΔF508 CFTR Membrane Expression. HEK-293T cells stably expressing ΔF508CFTR-FAP (Holleran et al. Mol. Med. 2012, 18, 685-696) were seeded into poly-L-lysine-coated white-wall, clear bottom 96-well plates (100,000 cells/well) in complete growth medium and incubated for 24 h at 27° ° C. or 37° C. and 5% CO2. After 24 h, media was aspirated from each well and washed twice with warm DPBS. Compound serial dilutions with or without 10 μM VX809 were added to each well in fresh penicillin/streptomycin-free media containing 10% FBS and incubated at 27° ° C. or 37° ° C. in 5% CO2 for 24 h. After 24 h, the media was aspirated and each well was washed 3× with warm DPBS. 500 nM MG-B-Tau and 500 nM Hoechst 33342 was added in DPBS and MG-B-Tau fluorescence was immediately measured on a TECAN Infinite M1000 plate reader (excitation=640 nm, emission=680 nm, 10 nm bandwidth, 16 distinct points per well). After measurement, the plate was returned to the incubator at 37° C. for 1 h before quantifying Hoechst 33342 fluorescence on a TECAN Infinite M1000 plate reader (excitation=362 nm, emission=492 nm, 5 nm bandwidth, identical points per well as measured for MG-B-Tau). Cell-count normalized fluorescent intensity was determined by dividing the per-well MG-B-Tau intensity by Hoechst intensity and then plotted relative to untreated control using GraphPad PRISM ver. 7.0.

[9] = system: CFBE cells; assay: Short-circuit current, Ussing chamber; format: cell-based; conditions: 100 nM with 10 μM VX661, relative to VX661 only control
Experimental: as §2

[10] = system: HCT116 cell spheroids; assay: Intracellular stability by MALDI imaging; format: in vitro ADME; conditions: after 4 or 24 h incubation with PGD97
Experimental: Intracellular Stability. PGD97 ([…]) was added to HCT116 cell spheroids in RPMI-1640 medium supplemented with 10% FBS and 1% penicillin/streptomycin and incubated for 4 or 24 h. After incubation, spheroids were washed 3× with DPBS, quickly frozen, embedded in a solid support, and cryo-sectioned. Prior to analysis, sinapinic acid was sublimed onto individual slides. The sample was imaged using a Bruker ultrafleXtreme MALDI-TOF-TOF and analyzed for the presence of proteolytic degradation fragments. Heatmaps, scaled relative to the most intense signal, were generated for the intact peptide (both 29 and 32) as well as ˜20 potential proteolytic fragments at each time point. […] A degradation fragment (#1) corresponding to proteolytic cleavage between Thr and Arg (FIG. 8B) was observed, but none of the other potential degradation products were observed. […] Most importantly, significant concentrations of intact peptide 29 was still present inside the cells after 24 h.

Row | Compound | Uptake (% rel.) ([1]; 5 μM, 2 h, relative to CPP9 (100%)) | IC50 [2] | LC3-II protein levels [3] | ion channel activity (short-circuit current) [4] | cell viability [5] | cell viability [6] | cell viability [7] | concentrations at which increased expression was observed [8] | cell surface expression of ΔF508CFTR-FAP ([8]; 10 μM PGD97) | cell surface expression of ΔF508CFTR-FAP ([8]; PGD97 alone, 27° C., 24 h) | cell surface expression of ΔF508CFTR-FAP ([8]; in combination with 10 μM VX809, 27° C.) | improvement of ion channel activity (short-circuit current) ([9]; after 4 h) | improvement of ion channel activity (short-circuit current) ([9]; after 24 h) | presence of intact peptide in spheroids [10] | cytosolic entry efficiency relative to CPP9 ([1]; 5 μM, 2 h) | absolute cytosolic entry efficiency ([1]; from relative efficiency and CPP9 value)
1 | CC(=O)N[C@@H](CS)C(=O)N[C@@H](CCCNC(=N)N)C(=O)N[C@H](CCCNC(=N)N)C(=O)N[C@@H](CCCNC(=N)N)C(=O)N[C@@H](Cc1ccc2ccccc2c1)C(=O)N[C@@H](Cc1c[nH]c2ccccc12)C(=O)N[C@@H](CCC(N)=O)C(=O)N[C@H](C(=O)N[C@H](C(=O)N[C@@H](CCCNC(=N)N)C(=O)N[C@H](C(=O)O)C(C)(C)C)[C@@H](C)O)C(C)(C)S [Compound 22, Ac-Cys-Arg-(D-Arg)-Arg-(2-Nal)-Trp-Gln-Pen-Thr-Arg-Tle-OH] (Ac-CR[dR]R[2Nal]WQ[Pen]TR[Tle]-OH) | 17 ± 2% | 401 nM | – | – | – | – | – | – | – | – | – | – | – | – | – | –
2 | CC(=O)N[C@H]1CSSC(C)(C)[C@@H](C(=O)N[C@H](C(=O)N[C@@H](CCCNC(=N)N)C(=O)N[C@H](C(=O)O)C(C)(C)C)[C@@H](C)O)NC(=O)[C@@H]2CCCCN2C(=O)[C@H](Cc2csc3ccccc23)NC(=O)[C@H](Cc2ccc3ccccc3c2)NC(=O)[C@H](CCCNC(=N)N)NC(=O)[C@H](CCCNC(=N)N)NC(=O)[C@@H](CCCNC(=N)N)NC1=O [Compound 32, Ac-Cys*-(D-Arg)-Arg-Arg-Nal-Bta-Pip-Pen*-Thr-Arg-Tle-OH] (Ac-C[dR]RR[2Nal][Bta][Pip][Pen]TR[Tle]-OH; disulfide 1-8) | – | – | increased the LC3-II protein levels to nearly WT level | significantly increased the ion channel activity | did not significantly reduce the viability | did not significantly reduce the viability | did not significantly reduce the viability | 10 to 1000 nM | reduced its surface expression | slightly increased | further increase in cell surface expression | 33% | 37% | not | 60% | ~36%
